Data on seven molecules can be found in patent publication US20120309676A1, “Lantibiotic Salts” (priority 2010, published 2012).

Molecules are shown by their SMILES. Counter-ions that a name gives are not always drawn.

The nature of one data set: Aqueous solubility. Format: physicochemical. To be noted: for pH of saturated solution: aqueous saturated solution. The text has this: Solubility as employed herein is used generically to refer to a distribution of a compound of formula (I) in a solvent (for example water, saline or an aqueous isotonic solution such as glucose) such that the formulation/composition resulting therefrom is substantially free of visible aggregates and for example is substantially transparent when viewed by the naked eye. Such a formulation would therefore include a whole range of formats which are suitable for infusion and/or injection such as solutions, suspensions, colloids and the like. […]

For data set [1], the system named is Staphylococcus aureus methicillin resistant ATCC 33591. Put plainly: Mouse bacteraemia model, SC dosing. The data set is classed as in vivo. The method, then: Groups of 6 male CD-1 (Crl.) derived mice weighing 24±2 g were used. Mice were inoculated intraperitoneally (IP) with an LD90-100 of Staphylococcus aureus methicillin resistant ATCC 33591 (1.1×10^7 CFU/mouse) in 0.5 mL of BHI broth containing 5% mucin. Example 1 and vancomycin were dissolved in 15% HPbetaCD/4.4% glucose/0.5 mM KH2PO4, pH 5.0 and doses of 1, 3, 5, 10 and 20 mg/Kg were administered subcutaneously (SC) to test animals at 0, 2 and 24 hour(s) after bacteria challenge. The dosing volume was 5 mL/Kg. Mortality was recorded once daily for 7 days (FIG. 1). The ED50 for each compound was determined by nonlinear regression.

Data set [2] shares this test system. As to the kind of experiment: Mouse bacteraemia model, second experiment, IV dosing. The data set is classed as in vivo. The conditions noted are these: for number of deaths: after 7 days, groups of 6 mice. Here is the method:
In a second experiment Groups of 6 male CD-1 (Crl.) derived mice weighing 24±2 g were used. Mice were inoculated intraperitoneally (IP) with an LD90-100 of Staphylococcus aureus methicillin resistant ATCC 33591 (1.35×10^8 CFU/mouse) in 0.5 mL of BHI broth containing 5% mucin. Example 1 was dissolved in 5% dextrose/1.5 mM potassium phosphate, pH 5.0 and doses of 1, 3, 5 and 10 mg/Kg were administered intravenously (IV) to test animals at 1 and 13 hour(s) after bacteria challenge. The dosing volume was 5 mL/Kg. Mortality was recorded once daily for 7 days.

The test system of data set [3] is Methicillin Resistant Staphylococcus aureus (MRSA, ATCC 33591). As to the kind of experiment: Neutropaenic mouse thigh infection model. The data set is classed as in vivo. The method, then:
In vivo efficacy of compounds of the present invention in the treatment of bacterial tissue infections was evaluated using a neutropaenic mouse thigh model.
Groups of 6 male ICR mice weighing 24±2 g were used. Test animals were immunosuppressed by 2 intraperitoneal injections of cyclophosphamide, the first at 150 mg/Kg 4 days before infection (day-4) and the second at 100 mg/Kg 1 day before infection (day-1). On day 0, individual animals were inoculated intramuscularly (IM) into the right thigh of test animals with 1.15×10^8 CFU/mouse of Methicillin Resistant Staphylococcus aureus (MRSA, ATCC 33591) suspended in 100 μL of sterile PBS, pH 7.4. Vehicle and test substances were administered intravenously (IV) at a dose volume of 6 mL/Kg, 2 and 14 hours after thigh infection. Example 1 and vancomycin were dissolved in 15% hydroxypropyl-β-cyclodextrin/4.4% glucose/1.5 mM potassium phosphate buffer, pH 7.0 and administered at doses of 5, 10, 20, 30 and 40 mg/Kg. At 26 hours after inoculation, muscle of the right thigh of each test mouse was harvested. From an additional group with no treatment, muscle of the right thigh was harvested at 2 hours after inoculation for the basal CFU determination. The removed muscle tissues were then homogenized in 3-4 mL of PBS, pH 7.4 with a ceramic mortar. Homogenates of 0.1 mL were used for serial 10-fold dilutions and plated on Mueller Hinton broth in 1.5% Bacto agar for CFU determination. […] Results (mean cfu/g) are graphically represented in FIG. 2.

Data set [4] shares this test system. As to the kind of experiment: Neutropaenic mouse thigh infection model, further experiment. Format: in vivo. To be noted: IV 2 and 14 h after infection, 2.5-50 mg/Kg, FIG. 3. The method, then: In a further experiment, groups of 6 male ICR mice weighing 24±2 g were used. Test animals were immunosuppressed by 2 intraperitoneal injections of cyclophosphamide, the first at 150 mg/Kg 4 days before infection (day-4) and the second at 100 mg/Kg 1 day before infection (day-1). On day 0, individual animals were inoculated intramuscularly (IM) into the right thigh of test animals with 1.5×10^5 CFU/mouse of Methicillin Resistant Staphylococcus aureus (MRSA, ATCC 33591) suspended in 100 μL of sterile PBS, pH 7.4. Vehicle and test substances were administered intravenously (IV) at a dose volume of 8 mL/Kg, 2 and 14 hours after thigh infection. Example 1 was dissolved in 5% dextrose/1 mM potassium phosphate, pH 5.0 and administered at doses of 2.5, 5, 10, 15, 25 and 50 mg/Kg. At 26 hours after inoculation, muscle of the right thigh of each test mouse was harvested. From an additional group with no treatment, muscle of the right thigh was harvested at 2 hours after inoculation for the basal CFU determination. The removed muscle tissues were then homogenized in 3-4 mL of PBS, pH 7.4 with a ceramic mortar. Homogenates of 0.1 mL were used for serial 10-fold dilutions and plated on Mueller Hinton broth in 1.5% Bacto agar for CFU determination.

The nature of data set [5]: In vivo plasma half-life in mice. To be noted: male, mouse, 29.76 mg/kg; CD-1 mice, IV dose of Example 1 (9.3 mL/Kg of 3.2 mg/mL solution); Compound 1 in plasma by LC-MS. The method, then:
The in vivo half-life of Compound 1 in mice was determined by measurement of its plasma concentrations at various time points following IV dosing. 18 male CD-1 mice aged 7-9 weeks were dosed IV with a 9.3 mL/Kg dose of a 3.2 mg/mL solution of Example 1 in 15% hydroxypropyl-β-cyclodextrin/4.4% glucose/1 mM potassium phosphate (pH=7.6). Plasma samples were obtained at 10, 20, 30, 60, 120 and 240 min post-dose, sampling from 3 animals at each time point. Concentrations of Compound 1 in plasma were determined by LC-MS quantification.

[6] abbreviates: aqueous, * = calculations made from two determinations.

Consider `CC[C@H](C)[C@@H]1NC(=O)[C@@H]2NC(=O)[C@H](CC(C)C)NC(=O)[C@H](NC(=O)[C@@H]3CSC[C@@H](N)C(=O)N[C@@H](CO)C(=O)NCC(=O)N[C@@H](Cc4c[nH]c5ccccc45)C(=O)N[C@@H](C(C)C)C(=O)N3)[C@H](C)SC[C@H](NC(=O)[C@H](CCC(=O)O)NC1=O)C(=O)NCC(=O)N[C@H]1C(=O)N[C@@H](CC(C)C)C(=O)N[C@@H](C(C)C)C(=O)N[C@@H](CS[C@H]2C)C(=O)N[C@@H](C)C(=O)N[C@H](C(=O)NCc2cc(Cl)cc(Cl)c2)CS[C@H]1C` [tromethamine salt], for which the “pH of saturated solution” value in the data set “Aqueous solubility” is 8.53. In addition, the Solubility in “Aqueous solubility” (setting [6]) is reported as 2.38 mg/mL.

Regarding `CC[C@H](C)[C@@H]1NC(=O)[C@@H]2NC(=O)[C@H](CC(C)C)NC(=O)[C@H](NC(=O)[C@@H]3CSC[C@@H](N)C(=O)N[C@@H](CO)C(=O)NCC(=O)N[C@@H](Cc4c[nH]c5ccccc45)C(=O)N[C@@H](C(C)C)C(=O)N3)[C@H](C)SC[C@H](NC(=O)[C@H](CCC(=O)O)NC1=O)C(=O)NCC(=O)N[C@H]1C(=O)N[C@@H](CC(C)C)C(=O)N[C@@H](C(C)C)C(=O)N[C@@H](CS[C@H]2C)C(=O)N[C@@H](C)C(=O)N[C@H](C(=O)NCc2cc(Cl)cc(Cl)c2)CS[C@H]1C` [ethanolamine salt], the “pH of saturated solution” value in the data set “Aqueous solubility” turned out to be 8.74. For the same molecule, the Solubility was 10.5* mg/mL in “Aqueous solubility” (setting [6]) and “more than 10 mg/mL” in the data set “Aqueous solubility” (salts of compound 1, listed as ethanolamine salt of compound 1).

For the molecule `CC[C@H](C)[C@@H]1NC(=O)[C@@H]2NC(=O)[C@H](CC(C)C)NC(=O)[C@H](NC(=O)[C@@H]3CSC[C@@H](N)C(=O)N[C@@H](CO)C(=O)NCC(=O)N[C@@H](Cc4c[nH]c5ccccc45)C(=O)N[C@@H](C(C)C)C(=O)N3)[C@H](C)SC[C@H](NC(=O)[C@H](CCC(=O)O)NC1=O)C(=O)NCC(=O)N[C@H]1C(=O)N[C@@H](CC(C)C)C(=O)N[C@@H](C(C)C)C(=O)N[C@@H](CS[C@H]2C)C(=O)N[C@@H](C)C(=O)N[C@H](C(=O)NCc2cc(Cl)cc(Cl)c2)CS[C@H]1C` [triethanolamine salt], in the data set “Aqueous solubility”, the “pH of saturated solution” value amounted to 8.43. Further, in “Aqueous solubility” (setting [6]), the Solubility was 1.04 mg/mL.

As for `CN[C@H](CC(C)C)C(=O)N[C@H]1C(=O)N[C@@H](CC(N)=O)C(=O)N[C@H]2C(=O)N[C@H]3C(=O)N[C@H](C(=O)N[C@H](C(=O)O)c4cc(O)cc(O)c4-c4cc3ccc4O)[C@H](O)c3ccc(c(Cl)c3)Oc3cc2cc(c3O[C@@H]2O[C@H](CO)[C@@H](O)[C@H](O)[C@H]2O[C@H]2C[C@](C)(N)[C@H](O)[C@H](C)O2)Oc2ccc(cc2Cl)[C@H]1O` [vancomycin, reference compound], the “antimicrobial effect against S. aureus (MRSA) in mice” value in data set [1] (3, 5, 10 and 20 mg/Kg×3, SC) was “significant antimicrobial effect”. Moreover, the ED50 in data set [1] (Staphylococcus aureus, ATCC33591, CD-1 mice, SC at 0, 2 and 24 h after challenge, mortality over 7 days, nonlinear regression, read-out: estimated ED50) is 3 mg/kg. Besides, the number of deaths in data set [2] (1 mg/kg IV at 1 and 13 h after challenge) was 5; in data set [2] (3 mg/kg IV at 1 and 13 h after challenge), 3; in data set [2] (5 mg/kg IV at 1 and 13 h after challenge), 1; in data set [2] (10 mg/kg IV at 1 and 13 h after challenge), 0. Further, the “survival of mice after 7 days” value in data set [2] (1, 3, 5 and 10 mg/kg) was “dose-dependent incease in survival”. The antimicrobial effect result in data set [3] (IV at 5, 10, 20, 30 and 40 mg/Kg×2, 2 and 14 h after thigh infection, harvest at 26 h) was “significant antimicrobial effect”. For the same molecule, the “reductions of CFU/g” value in data set [3] (at 30 mg/kg and above, IV ×2, thigh muscle at 26 h) is on record as over 100 fold. In addition, the “bacterial counts in the thigh tissue” value in data set [4] is on record as “dose dependent reduction”.

In turn, `CCC(C)[C@@H]1NC(=O)[C@@H]2NC(=O)[C@H](CC(C)C)NC(=O)[C@H](NC(=O)[C@H]3CSC[C@H](N)C(=O)N[C@@H](CO)C(=O)NCC(=O)N[C@@H](Cc4c[nH]c5ccccc45)C(=O)N[C@@H](C(C)C)C(=O)N3)[C@H](C)SC[C@H](NC(=O)[C@H](CCC(=O)O)NC1=O)C(=O)NCC(=O)N[C@@H]1C(=O)N[C@@H](CC(C)C)C(=O)N[C@@H](C(C)C)C(=O)N[C@@H](CS[C@H]2C)C(=O)N[C@@H](C)C(=O)N[C@H](C(=O)NCc2cc(Cl)cc(Cl)c2)CS[C@H]1C` (stereo partly drawn) [Compound 1, Deoxyactagardine B (3,5-dichlorobenzylamine) monocarboxamide] had a half-life in data set [5] of about 2 h.

In the case of `CC[C@H](C)[C@@H]1NC(=O)[C@@H]2NC(=O)[C@H](CC(C)C)NC(=O)[C@H](NC(=O)[C@@H]3CSC[C@@H](N)C(=O)N[C@@H](CO)C(=O)NCC(=O)N[C@@H](Cc4c[nH]c5ccccc45)C(=O)N[C@@H](C(C)C)C(=O)N3)[C@H](C)SC[C@H](NC(=O)[C@H](CCC(=O)O)NC1=O)C(=O)NCC(=O)N[C@H]1C(=O)N[C@@H](CC(C)C)C(=O)N[C@@H](C(C)C)C(=O)N[C@@H](CS[C@H]2C)C(=O)N[C@@H](C)C(=O)N[C@H](C(=O)NCc2cc(Cl)cc(Cl)c2)CS[C@H]1C` [N-ethyl-D-glucamine salt], the “pH of saturated solution” value in the data set “Aqueous solubility” is recorded as 8.43. Besides, the Solubility is reported as 11.16* mg/mL in the data set “Aqueous solubility” (setting [6]) and “more than 10 mg/mL” in “Aqueous solubility” (salts of compound 1, listed as N-ethyl glucamine salt of compound 1).

On to `CC[C@H](C)[C@@H]1NC(=O)[C@@H]2NC(=O)[C@H](CC(C)C)NC(=O)[C@H](NC(=O)[C@@H]3CSC[C@@H](N)C(=O)N[C@@H](CO)C(=O)NCC(=O)N[C@@H](Cc4c[nH]c5ccccc45)C(=O)N[C@@H](C(C)C)C(=O)N3)[C@H](C)SC[C@H](NC(=O)[C@H](CCC(=O)O)NC1=O)C(=O)NCC(=O)N[C@H]1C(=O)N[C@@H](CC(C)C)C(=O)N[C@@H](C(C)C)C(=O)N[C@@H](CS[C@H]2C)C(=O)N[C@@H](C)C(=O)N[C@H](C(=O)NCc2cc(Cl)cc(Cl)c2)CS[C@H]1C` [diethanolamine salt], for which the “pH of saturated solution” value in “Aqueous solubility” worked out at 8.78. Further, the Solubility in the data set “Aqueous solubility” (setting [6]) is 6.94* mg/mL; in the data set “Aqueous solubility” (salts of compound 1, listed as diethanolamine salt of compound 1), “more than 5 mg/mL”.
